Results from article PMC7603008 (Materials, 2020).
Ends that are not written are not given here.

What was measured:
MDPC-23 cells = test: Peptide translocation and localization by immunofluorescence; format: cell-based, mouse
Protocol: For peptide translocation and localization analysis, a Cy5 Fast Conjugation Kit (ab188288, Abcam, Cambridge, MA, USA) was used to tag Cpne7-DP according to the manufacturer’s instructions. MDPC-23 cells were treated with Cy5-labeled Cpne7-DP (10 µg/mL) and fixed 3 h later. Before fixing with 4% paraformaldehyde in PBS, cells in Laboratory-Tek chamber slides (Nunc, Rochester, NY, USA) were washed with PBS. Cells were then visualized using fluorescence microscopy (AX70, Olympus, Tokyo, Japan). DAPI (Sigma-Aldrich) was used to identify the chromosomal DNA in the nucleus (1:1000 dilution).

hDPCs = test: MTT cytotoxicity / proliferation assay; format: cell-based, human; conditions: 0 to 5 days, absorbance 540 nm, three independent experiments in triplicate
Protocol: To evaluate the effects of Cpne7-DP on hDPCs proliferation, an MTT [3-(4,5-Dimethylthiazol-2-yl)-2,5-diphenyltetrazolium bromide, a tetrazole] assay (Sigma-Aldrich, Saint Louis, MO, USA) was performed. Cells were seeded on a 96-well plate at a density of 3 × 10^3 cells/well and treated with Cpne7-DP after 24 h. Cells were cultured for up to 5 days, and MTT analyses were performed on days 0, 1, 3, and 5. After washing with phosphate-buffered saline (PBS), 20 µL of MTT was added to each well and incubated for 4 h at 37 °C. After removing the MTT solution, the converted dye was dissolved in Me2SO and measured by reading the absorbance at a wavelength of 540 nm with a microplate reader (Multiskan EX; Thermo Electron Corp., Waltham, MA, USA). Three independent experiments with triplicate samples were analyzed.

[1] = Dentinal tubule penetration by confocal laser scanning microscopy; parameters: species or system human; conditions: Rhodamin B-labeled Cpne7-DP 20 µg microbrushed for 1 min onto acid-etched dentin of extracted tooth, PBS wash
Protocol: Human third molars were collected at the Seoul National University Dental Hospital (Seoul, Korea), and the experimental protocol was approved by the Institutional Review Board (IRB No: S-D20140007). Teeth were decoronated to 2–3 mm using a safe diamond disc (Isomet, Buehler Ltd., Düsseldorf, Germany) to eliminate the coronal enamel layer and expose the dentin surface. Teeth were then treated with 5 mL of 32% phosphoric acid solution for 5 min to completely open the dentinal tubules. To remove the residual smear layer, specimens were ultrasonicated in deionized water twice for 5 min each and then rinsed with PBS three times.
Cpne7-DP was tagged with Rhodamin B dye using the Rhodamine Fast Conjugation kit (ab188286, Abcam, Cambridge, MA, USA) according to the manufacturer’s instructions. Rhodamin B-labeled Cpne7-DP (20 µg) was applied to the dentin surfaces of specimens with the help of disposable microbrushes for 1 min, and then specimens were washed with PBS three times. Subsequently, the specimens were longitudinally sectioned at a thickness of 0.5 mm using a safe diamond disc. The sections were mounted onto glass slides and scanned under a confocal laser scanning microscope (LSM 700; Carl Zeiss, Jena, Germany).

## KYKQKRRSYK [Cpne7-DP]
MDPC-23 cells; MDPC-23 cells pre-treated with CPZ 10 and 20 μM for 1 h, immunofluorescence
  Internalization with chlorpromazine (clathrin-mediated endocytosis inhibitor): diffusely localized to the cytoplasm
MDPC-23 cells; MDPC-23 cells pre-treated with EIPA for 1 h, immunofluorescence
  Internalization with ethylisopropyl amiloride (macropinocytosis inhibitor): no effect on the cytoplasmic localization
MDPC-23 cells; MDPC-23 cells pre-treated with MβCD for 1 h, immunofluorescence
  Internalization with methyl-β-cyclodextrin (caveolin-mediated endocytosis inhibitor): diffusely localized to the cytoplasm
MDPC-23 cells; MDPC-23 cells pre-treated with nucleolin siRNA for 1 h, immunofluorescence
  Internalization in nucleolin siRNA-transfected cells: diffusely located in the cytoplasm
MDPC-23 cells; MDPC-23 cells, Cy5-labeled Cpne7-DP 10 µg/mL, fixed 3 h later, fluorescence microscopy
  Intracellular distribution: localized to the cytoplasm
hDPCs
  Cytotoxicity versus control (MTT): no significant difference in cytotoxicity
[1]
  Ability to permeate dentinal tubules: flow through the entire length of the dentinal tubules into the pulp
